Results from the NIST ThermoML archive (doi:10.1021/je900137r).
± gives the expanded uncertainty stated by the source.

Assay: Molar enthalpy of transition or fusion
Conditions: Crystal; Adiabatic calorimetry

Molar enthalpy of transition or fusion: 3.51 ± 0.04 kJ/mol
SMILES: CCC [propane]
